Results taken from patent US7285548B2, “Urea substituted benzothiazoles” (Hoffmann-La Roche Inc., priority 2003, dated 2007).

What was measured:
[1] = biological target: T1, human adenosine A2A receptor (Homo sapiens, UniProt P29274); assay: [3H]-SCH-58261 binding assay, human adenosine A2A receptor (CHO cell membranes, SPA); conditions: recombinant human A2A receptor in CHO membranes; [3H]-SCH-58261 1 nM; Ki by Cheng-Prussoff equation; read-out: hA2 (pKi) (converted)
T1 construct: expressed in transfected cells; host or cells: CHO cells, semliki forest virus expression system; membrane preparation
Procedure: Human Adenosine A2A Receptor
The human adenosine A2A receptor was recombinantly expressed in Chinese hamster ovary (CHO) cells using the semliki forest virus expression system. Cells were harvested, washed twice by centrifugation, homogenized and again washed by centrifugation. The final washed membrane pellet was suspended in a Tris (50 mM) buffer containing 120 mM NaCl, 5 mM KCl, 2 mM CaCl2 and 10 mM MgCl2 (pH 7.4) (buffer A). The [^3H]-SCH-58261 (Dionisotti et al., 1997, Br J Pharmacol 121, 353; 1nM) binding assay was carried out in 96-well plates in the presence of 2.5 μg of membrane protein, 0.5 mg of Ysi-poly-l-lysine SPA beads and 0.1 U adenosine deaminase in a final volume of 200 μl of buffer A. Non-specific binding was defined using xanthine amine congener (XAC; 2 μM). Compounds were tested at 10 concentrations from 10 μM-0.3 nM. All assays were conducted in duplicate and repeated at least two times. Assay plates were incubated for 1 hour at room temperature before centrifugation and then bound ligand determined using a Packard Topcount scintillation counter. IC50 values were calculated using a non-linear curve fitting program and Ki values calculated using the Cheng-Prussoff equation.

T1 sequence (P29274 whole entry): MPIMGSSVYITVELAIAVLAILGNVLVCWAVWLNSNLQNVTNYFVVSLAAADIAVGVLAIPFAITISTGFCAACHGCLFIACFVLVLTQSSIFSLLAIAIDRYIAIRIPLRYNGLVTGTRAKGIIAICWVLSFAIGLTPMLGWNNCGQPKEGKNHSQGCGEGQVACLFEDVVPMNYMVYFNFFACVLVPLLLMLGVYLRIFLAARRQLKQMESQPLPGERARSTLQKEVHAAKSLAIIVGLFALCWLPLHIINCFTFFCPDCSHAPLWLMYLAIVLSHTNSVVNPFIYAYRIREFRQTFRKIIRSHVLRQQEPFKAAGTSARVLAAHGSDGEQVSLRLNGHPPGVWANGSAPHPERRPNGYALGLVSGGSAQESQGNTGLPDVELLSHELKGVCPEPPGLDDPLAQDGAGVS

melting point	Ki [1] [nM]	Compound
165 to 176 °C	50.1	COc1ccc(N2CCOCC2)c2sc(NC(=O)N(C)C34CC5CC(CC(C5)C3)C4)nc12 [Example 12, 1-Adamantan-1-yl-3-(4-methoxy-7-morpholin-4-yl-benzothiazol-2-yl)-1-methyl-urea]
202 to 203 °C	10	COc1ccc(N2CCOCC2)c2sc(NC(=O)N(C)C3CC4CCC3O4)nc12 (single isomer, unassigned) [Example 8, (exo)-(−)-3-(4-Methoxy-7-morpholin-4-yl-benzothiazol-2-yl)-1-methyl-1-(7-oxa-bicyclo[2.2.1]hept-2-yl)-urea]
202 to 204 °C	3.16	COc1ccc(N2CCOCC2)c2sc(NC(=O)N(C)C3CC4CCC3O4)nc12 (single isomer, unassigned) [Example 7, (exo)-(+)-3-(4-Methoxy-7-morpholin-4-yl-benzothiazol-2-yl)-1-methyl-1-(7-oxa-bicyclo[2.2.1]hept-2-yl)-urea]
199 to 202 °C	7.94	COc1ccc(N2CCOCC2)c2sc(NC(=O)N(C)C3CC4CCC3C4)nc12 (racemic) [Example 6, 1-(endo)-(rac)-Bicyclo[2.2.1]hept-2-yl-3-(4-methoxy-7-morpholin-4-yl-benzothiazol-2-yl)-1-methyl-urea]
191 to 193 °C	12.6	COc1ccc(N2CCOCC2)c2sc(NC(=O)N(C)C3CC4CCC3O4)nc12 (racemic) [Example 9, (rac)-(endo)-3-(4-Methoxy-7-morpholin-4-yl-benzothiazol-2-yl)-1-methyl-1-(7-oxa-bicyclo[2.2.1]hept-2-yl)-urea]
189 °C	7.94	COc1ccc(N2CCOCC2)c2sc(NC(=O)N(C)C3CC4CC3CC4O)nc12 (racemic) [Example 10, (rac)-1-(5-exo-Hydroxy-bicyclo[2.2.1]hept-2-exo-yl)-3-(4-methoxy-7-morpholin-4-yl-benzothiazol-2-yl)-1-methyl-urea]

The next lines start with the compound.

Compound	melting point	Ki [1] [nM]
COc1ccc(N2CCOCC2)c2sc(NC(=O)N(C)[C@H]3CC[C@H](C)CC3)nc12 [Example 2, (trans)-3-(4-Methoxy-7-morpholin-4-yl-benzothiazol-2-yl)-1-methyl-1-(4-methyl-cyclohexyl)-urea]	171 to 173 °C	15.8
COC[C@H]1CC[C@H](N(C)C(=O)Nc2nc3c(OC)ccc(N4CCOCC4)c3s2)CC1 [Example 4, (trans)-1-(4-Methoxymethyl-cyclohexyl)-3-(4-methoxy-7-morpholin-4-yl-benzothiazol-2-yl)-1-methyl-urea]	141 to 143 °C	20
COc1ccc(N2CCOCC2)c2sc(NC(=O)N(C)C3CCC(CO)C3)nc12 (racemic) [Example 5, (rac),(cis)-1-(3-Hydroxymethyl-cyclopentyl)-3-(4-methoxy-7-morpholin-4-yl-benzothiazol-2-yl)-1-methyl-urea]	115 to 118 °C	3.98
COc1ccc(N2CCOCC2)c2sc(NC(=O)N(C)C3CCC(C(F)(F)F)CC3)nc12 (stereo not drawn) [Example 1, 3-(4-Methoxy-7-morpholin-4-yl-benzothiazol-2-yl)-1-methyl-1-(4-trifluoromethyl-cyclohexyl)-urea]	157 to 167 °C	20
COc1ccc(N2CCOCC2)c2sc(NC(=O)N3CC4CCC(C3)O4)nc12 [Example 13, 8-Oxa-3-aza-bicyclo[3.2.1]octane-3-carboxylic acid (4-methoxy-7-morpholin-4-yl-benzothiazol-2-yl)-amide]	229 to 231 °C	10
COc1ccc(N2CCOCC2)c2sc(NC(=O)N(C)[C@H]3CC[C@H](CO)CC3)nc12 [Example 3, (trans)-1-(4-Hydroxymethyl-cyclohexyl)-3-(4-methoxy-7-morpholin-4-yl-benzothiazol-2-yl)-1-methyl-urea]	190 °C (dec.)	15.8
